# Measurements as given in patent publication US10550127B1, “Indanylaminoazadihydrobenzofuranylacetic acids, pharmaceutical compositions for the treatment of diabetes” (Boehringer Ingelheim International GmbH, priority 2017, dated 2020).
# pEC50: −log10 of the molar value.
# Target: human GPR40 receptor (Homo sapiens (Human), UniProt O14842)
# Assay: IP1 accumulation measurements using the IPOne assay system
# Type: cell-based
# Conditions: 1321N1 cells stably expressing human GPR40, 1 h stimulation
# Procedure: IP1 accumulation measurements using the IPOne assay system—1321N1 cells stably expressing human GPR40 receptor (Euroscreen, Belgium) are seeded 24 h before the assay in white 384-well plates in culture medium containing 10% FCS, 1% Na-Pyruvate and 400 μg/mL G418. IP1 is assayed according to the manufacturer's description (Cisbio Bioassays, France). In brief, the assay is started by substitution of the culture medium by stimulation buffer (Hepes 10 mM, CaCl2) 1 mM, MgCl2 0.5 mM, KCl 4.2 mM, NaCl 146 mM, glucose 5.5 mM and LiCl 50 mM, pH 7.4). Cells are stimulated for 1 h at 37° C., 5% CO2 by addition of the compounds that are diluted in stimulation buffer containing LiCl. Assays are stopped by adding HTRF-conjugates (IP1-d2 and Anti-IP1 cryptate Tb) and lysis buffer, provided by the manufacturer. After an incubation time of 1 h at room temperature plates are measured using an EnVision™, Perkin Elmer. The obtained fluorescence ratios at 665/615 […] are then used to calculate the pEC50 values using Assay Explorer 3.3 Software (Accelrys, Inc.) by interpolation using an IP1 reference curve and subsequent sigmoidal curve fitting allowing for a variable hill slope.
# Chain of human GPR40 receptor (O14842 whole entry): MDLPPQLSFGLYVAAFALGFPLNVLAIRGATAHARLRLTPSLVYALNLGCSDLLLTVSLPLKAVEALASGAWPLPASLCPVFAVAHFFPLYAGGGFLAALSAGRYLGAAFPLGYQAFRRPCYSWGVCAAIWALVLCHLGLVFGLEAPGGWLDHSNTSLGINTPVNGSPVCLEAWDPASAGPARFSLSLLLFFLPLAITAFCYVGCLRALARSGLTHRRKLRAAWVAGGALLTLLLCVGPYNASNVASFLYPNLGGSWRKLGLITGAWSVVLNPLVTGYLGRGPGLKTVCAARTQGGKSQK
row,Structure (SMILES),pEC50
1,"Cc1cc(OCCC(C)(C)O)cc(C)c1-c1ccc(F)c2c1CC[C@H]2Nc1cc2c(cn1)[C@@H](CC(=O)O)CO2 [Example 2, ((R)-6-{(R)-7-Fluoro-4-[4-(3-hydroxy-3-methyl-butoxy)-2,6-dimethyl-phenyl]-indan-1-ylamino}-2,3-dihydro-furo[3,2-c]pyridin-3-yl)-acetic Acid]",6.12
2,"Cc1cc(OCCC(C)(C)O)cc(C)c1-c1cccc2c1CC[C@H]2Nc1cc2c(cn1)[C@H](CC(=O)O)CO2 [Example 3, ((S)-6-{(R)-4-[4-(3-Hydroxy-3-methyl-butoxy)-2,6-dimethyl-phenyl]-indan-1-ylamino}-2,3-dihydro-furo[3,2-c]pyridin-3-yl)-acetic Acid]",7.68
3,"Cc1cc(OCCC(C)(C)O)cc(C)c1-c1cccc2c1CC[C@H]2Nc1cc2c(cn1)[C@@H](CC(=O)O)CO2 [Example 4, ((R)-6-{(R)-4-[4-(3-Hydroxy-3-methyl-butoxy)-2,6-dimethyl-phenyl]-indan-1-ylamino}-2,3-dihydro-furo[3,2-c]pyridin-3-yl)-acetic acid]",6.12
4,"Cc1cc(-c2nnn(C)n2)cc(C)c1-c1ccc(F)c2c1CC[C@H]2Nc1cc2c(cn1)[C@@H](CC(=O)O)CO2 [Example 6, ((R)-6-{(R)-4-[2,6-Dimethyl-4-(2-methyl-2H-tetrazol-5-yl)-phenyl]-7-fluoro-indan-1-ylamino}-2,3-dihydro-furo[3,2-c]pyridin-3-yl)-acetic Acid]",6.42
5,"Cc1cc(-c2nnn(C)n2)cc(C)c1-c1cccc2c1CC[C@H]2Nc1cc2c(cn1)[C@H](CC(=O)O)CO2 [Example 7, ((S)-6-{(R)-4-[2,6-Dimethyl-4-(2-methyl-2H-tetrazol-5-yl)-phenyl]-indan-1-ylamino}-2,3-dihydro-furo[3,2-c]pyridin-3-yl)-acetic Acid]",8.15
6,"Cc1cc(-c2nnn(C)n2)cc(C)c1-c1cccc2c1CC[C@H]2Nc1cc2c(cn1)[C@@H](CC(=O)O)CO2 [Example 8, ((R)-6-{(R)-4-[2,6-Dimethyl-4-(2-methyl-2H-tetrazol-5-yl)-phenyl]-indan-1-ylamino}-2,3-dihydro-furo[3,2-c]pyridin-3-yl)-acetic acid]",6.42
7,"Cc1cc(O[C@@H]2CCOC2)cc(C)c1-c1ccc(F)c2c1CC[C@H]2Nc1cc2c(cn1)[C@H](CC(=O)O)CO2 [Example 9, [(S)-6-((R)-4-{2,6-Dimethyl-4-[(R)-(tetrahydro-furan-3-yl)oxy]-phenyl}-7-fluoro-indan-1-ylamino)-2,3-dihydro-furo[3,2-c]pyridin-3-yl]-acetic Acid]",7.24
8,"Cc1cc(OC2CCOCC2)cc(C)c1-c1ccc(F)c2c1CC[C@H]2Nc1cc2c(cn1)[C@H](CC(=O)O)CO2 [Example 10, ((S)-6-{(R)-4-[2,6-Dimethyl-4-(tetrahydro-pyran-4-yloxy)-phenyl]-7-fluoro-indan-1-ylamino}-2,3-dihydro-furo[3,2-c]pyridin-3-yl)-acetic Acid]",7.25
9,"Cc1cc(OCC2(C)COC2)cc(C)c1-c1ccc(F)c2c1CC[C@H]2Nc1cc2c(cn1)[C@H](CC(=O)O)CO2 [Example 11, ((S)-6-{(R)-4-[2,6-Dimethyl-4-(3-methyl-oxetan-3-ylmethoxy)-phenyl]-7-fluoro-indan-1-ylamino}-2,3-dihydro-furo[3,2-c]pyridin-3-yl)-acetic Acid]",7.43
10,"Cc1cc(O[C@H]2CCOC2)cc(C)c1-c1ccc(F)c2c1CC[C@H]2Nc1cc2c(cn1)[C@H](CC(=O)O)CO2 [Example 12, [(S)-6-((R)-4-{2,6-Dimethyl-4-[(S)-(tetrahydro-furan-3-yl)oxy]-phenyl}-7-fluoro-indan-1-ylamino)-2,3-dihydro-furo[3,2-c]pyridin-3-yl]-acetic Acid]",7.14
11,"Cc1cc(OCC(C)(C)O)cc(C)c1-c1ccc(F)c2c1CC[C@H]2Nc1cc2c(cn1)[C@H](CC(=O)O)CO2 [Example 13, ((S)-6-{(R)-7-Fluoro-4-[4-(2-hydroxo-2-methyl-propoxy)-2,6-dimethyl-phenyl]-indan-1-ylamino}-2,3-dihydro-furo[3,2-c]pyridin-3-yl)-acetic Acid]",7.46
12,"Cc1cc(OCC2CCOC2)cc(C)c1-c1ccc(F)c2c1CC[C@H]2Nc1cc2c(cn1)[C@H](CC(=O)O)CO2 (stereo partly drawn) [Example 14, ((S)-6-{(R)-4-[2,6-Dimethyl-4-(tetrahydro-furan-3-ylmethoxy)-phenyl]-7-fluoro-indan-1-ylamino}-2,3-dihydro-furo[3,2-c]pyridin-3-yl)-acetic Acid]",7.57
13,"Cc1cc(-c2nnn(CC(C)(C)O)n2)cc(C)c1-c1ccc(F)c2c1CC[C@H]2Nc1cc2c(cn1)[C@H](CC(=O)O)CO2 [Example 15, [(S)-6-((R)-7-Fluoro-4-{4-[2-(2-hydroxo-2-methyl-propyl)-2H-tetrazol-5-yl]-2,6-dimethyl-phenyl}-indan-1-ylamino)-2,3-dihydro-furo[3,2-c]pyridin-3-yl]-acetic acid]",8.05
14,"Cc1cc(-c2ccn(C)c(=O)n2)cc(C)c1-c1ccc(F)c2c1CC[C@H]2Nc1cc2c(cn1)[C@H](CC(=O)O)CO2 [Example 16, ((S)-6-{(R)-4-[2,6-Dimethyl-4-(1-methyl-2-oxo-1,2-dihydro-pyrimidin-4-yl)-phenyl]-7-fluoro-indan-1-ylamino}-2,3-dihydro-furo[3,2-c]pyridin-3-yl)-acetic acid]",7.57
15,"Cc1cc(-c2ccn(C)c(=O)c2)cc(C)c1-c1ccc(F)c2c1CC[C@H]2Nc1cc2c(cn1)[C@H](CC(=O)O)CO2 [Example 17, ((S)-6-{(R)-4-[2,6-Dimethyl-4-(1-methyl-2-oxo-1,2-dihydro-pyridin-4-yl)-phenyl]-7-fluoro-indan-1-ylamino}-2,3-dihydro-furo[3,2-c]pyridin-3-yl)-acetic Acid]",7.92
16,"Cc1cc(-c2cc(=O)n(C)cn2)cc(C)c1-c1ccc(F)c2c1CC[C@H]2Nc1cc2c(cn1)[C@H](CC(=O)O)CO2 [Example 18, ((S)-6-{(R)-4-[2,6-Dimethyl-4-(1-methyl-6-oxo-1,6-dihydro-pyrimidin-4-yl)-phenyl]-7-fluoro-indan-1-ylamino}-2,3-dihydro-furo[3,2-c]pyridin-3-yl)-acetic Acid]",7.85
17,"Cc1cc(-c2ccc(=O)n(C)c2)cc(C)c1-c1ccc(F)c2c1CC[C@H]2Nc1cc2c(cn1)[C@H](CC(=O)O)CO2 [Example 19, ((S)-6-{(R)-4-[2,6-Dimethyl-4-(1-methyl-6-oxo-1,6-dihydro-pyridin-3-yl)-phenyl]-7-fluoro-indan-1-ylamino}-2,3-dihydro-furo[3,2-c]pyridin-3-yl)-acetic Acid]",7.57
18,"Cc1cc(-c2cnccn2)cc(C)c1-c1ccc(F)c2c1CC[C@H]2Nc1cc2c(cn1)[C@H](CC(=O)O)CO2 [Example 20, {(S)-6-[(R)-4-(2,6-Dimethyl-4-pyrazin-2-yl-phenyl)-7-fluoro-indan-1-ylamino]-2,3-dihydro-furo[3,2-c]pyridin-3-yl}-acetic acid]",8.05
